From patent publication US5597798A, “Taxol and epidermal growth factor used to enhance treatment of ovarian cancer” (The Regents of the University of California, priority 1994, dated 1997) come the findings set out here.

Read-outs that look alike come from different tables or passages of the source.

One test has as its system 2008 tumor xenografts. The experiment in a line: Effect of EGF on cisplatin toxicity against tumor xenografts in athymic mice. It counts as in vivo, athymic mice (nu/nu). On the procedure: For these studies, 3 to 4 week old female athymic mice (nu/nu) from BALB/c origin were used which were supplied by Harlan Sprague Dawley, Inc. (Indianapolis, Ind.). The mice were kept in a laminar flow hood at 28° C. and fed standard mouse diet and water ad libitum.
Tumor xenografts were established from 2008 cells by harvesting confluent cell cultures by trypsinization and resuspending the cells in RPMI 1640 medium at 2.5×10^7 cells per ml. From this suspension, 0.2 ml aliquots containing 5×10^6 cells were injected s.c. on each shoulder of the athymic mice. In each mouse, two tumors were followed and tumor volumes were determined using the formula (length×width^2)/2 (Giavazzi et al., Cancer Res. 46:1928 (1986) and Tomayko & Reynolds Cancer Chemother. Pharmacol. 24:148 (1989)).
In all groups, treatment was administered 24 hours after the inoculation with tumor cells.
Tumor growth of each tumor in each animal was expressed as plot of in(tumor volume) as a function of time. The regression line of the in(tumor volume) versus time plot was calculated by using the method of least squares. The intercept and slope were obtained and used to calculate the time each tumor required to reach an arbitrarily defined volume of 1 ml. This volume was chosen because most tumors in all treatment groups reached this endpoint. For comparisons between two groups the unpaired Student's T-test was used. […]

The subject of test [1] is 2008 cells. Briefly: Colony forming (colonogenic) assay, effect of TPA, phorbol and staurosporine on DDP sensitivity.
Test [2] relates to 2008 cells. The experiment in a line: Cellular accumulation of [195mPt]DDP. The format is cell-based, human. Conditions: 60 min. On the procedure: Cell-associated ^195m Pt was determined by as a measure of DDP accumulation. For DDP accumulation studies, subconfluent monolayers were treated with 37° C. RPMI 1640 medium containing 20 μM [^195m Pt]-DDD. The dishes were immediately returned to the incubater. After 1 h incubation, the medium was aspirated, the cells were washed rapidly with 4° C. PBS 4 times. Two ml of 1N NaOH was added and the cells allowed to digest overnight. A forty μl aliquot was used for determination of protein content by the method of Bradford (Bradford, Anal. Biochem. 72:248-254 (1976)), and the remaining […] was counted in glass tubes on a Trak 1191 gamma counter (Tracer Analytic, EIK Grove Village, Ill.). Columns represent the mean values of 3 experiments performed with duplicate cultures. The bars represent the standard deviation.
Cultured 2008 cells were treated concurrently with [^195m Pt]DDP and TPA for 60 min. A vehicle control consisting of an appropriate dilution of acetone was run concurrently. […] Cells treated with medium alone contained 140±13 pmol/mg of protein, whereas those treated with the acetone control contained 141±7 pmol/mg of protein, and those treated with TPA contained 143±21 pmol/mg of protein.

Test [3] concerns 2008 human ovarian carcinoma cells. Briefly: Colony forming assay, effect of EGF on sensitivity to cytotoxic agents. The format is cell-based.

As for `N.N.[Cl][Pt][Cl]` [cisplatin], the final tumor volume entry with 2008 tumor xenografts (1 mg/kg EGF s.c. and/or 15 mg/kg cisplatin i.p., 24 hours after inoculation) is “significantly reduced relative to control tumors”. Moreover, the “additional time required for tumors to reach a volume of 1 ml vs control tumors” value in the test with 2008 tumor xenografts (15 mg/kg cisplatin i.p.) is 6 days. The colony survival result in the test on 2008 cells [1] (2 μM DDP in the absence of TPA (FIG. 6)) is “approximately 80%”. For the same compound, the “survival, % of control” value in the test on 2008 cells [1] (DDP (2 μM) alone) is recorded as 85±5%. Moreover, the entries for the “cellular accumulation of [195mPt]DDP” value with 2008 cells [2] (medium alone) and with 2008 cells [2] (treated concurrently with TPA) were 140±13 pmol/mg of protein and 143±21 pmol/mg of protein, respectively. The “effect of EGF on sensitivity of 2008 cells to the agent (in words)” value in test [3] (EGF and the cytotoxic agent concurrently for 1 h) is “significant increase in sensitivity”. Moreover, in test [3] (Table 3, ratio of IC50 in control and EGF-treated cells), the Dose modifying factor is listed as 2.7. Also, the concentration for half-maximal inhibition (IC50) (usually the concentration that gives 50% inhibition) in test [3] (read-out: IC50 in absence of EGF, Table 3, cisplatin 1 h, no EGF) stood at 2450 nM; in test [3] (read-out: IC50 in absence of EGF, cytotoxic agent for 1 h, no EGF) it was 2800 nM; in test [3] (read-out: IC50 in presence of EGF, EGF and the cytotoxic agent concurrently for 1 h), 900 nM; in test [3] (read-out: IC50 in presence of EGF, Table 3, 10 nM EGF and cisplatin concurrently for 1 h) it was 910 nM.
